pIC50: −log10 of the molar value.
Test system: 422866-222-R5-J1-PDC spheroids with HUVEC/MSC, viability
Assay: Anticancer human tumor 422866-222-R5-J1-PDC patient-derived pancreatic adenocarcinoma cell line growth inhibition [GQUAD]
Conditions: for pIC50: curve of first compound; for viability, T/C: stronger effect = lower value
How it was run: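 Tumor cells were grown as complex spheroids with HUVEC endothelial cells and mesenchymal stem cells as stroma. G-quadruplex stabilizers were combined with targeted agents over half-log dilutions from near the clinical Cmax, or from 10 microM.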

[1] = second compound 0.0316 µM, first compound 0.0316 µM
[2] = second compound 0.0316 µM, first compound 0.1 µM
[3] = second compound 0.0316 µM, first compound 0.316 µM
[4] = second compound 0.0316 µM, first compound 1 µM
[5] = second compound 0.0316 µM, first compound 3.16 µM
[6] = second compound 0.0316 µM, first compound 10 µM
[7] = second compound 0.1 µM, first compound 0.0316 µM
[8] = second compound 0.1 µM, first compound 0.1 µM
[9] = second compound 0.1 µM, first compound 0.316 µM
[10] = second compound 0.1 µM, first compound 1 µM
[11] = second compound 0.1 µM, first compound 3.16 µM
[12] = second compound 0.1 µM, first compound 10 µM
[13] = second compound 0.316 µM, first compound 0.0316 µM
[14] = second compound 0.316 µM, first compound 0.1 µM
[15] = second compound 0.316 µM, first compound 0.316 µM
[16] = second compound 0.316 µM, first compound 1 µM
[17] = second compound 0.316 µM, first compound 3.16 µM
[18] = second compound 0.316 µM, first compound 10 µM
[19] = second compound 1 µM, first compound 0.0316 µM
[20] = second compound 1 µM, first compound 0.1 µM
[21] = second compound 1 µM, first compound 0.316 µM
[22] = second compound 1 µM, first compound 1 µM
[23] = second compound 1 µM, first compound 3.16 µM
[24] = second compound 1 µM, first compound 10 µM
[25] = second compound 3.16 µM, first compound 0.0316 µM
[26] = second compound 3.16 µM, first compound 0.1 µM
[27] = second compound 3.16 µM, first compound 0.316 µM
[28] = second compound 3.16 µM, first compound 1 µM
[29] = second compound 3.16 µM, first compound 3.16 µM
[30] = second compound 3.16 µM, first compound 10 µM
[31] = second compound 10 µM, first compound 0.0316 µM
[32] = second compound 10 µM, first compound 0.1 µM
[33] = second compound 10 µM, first compound 0.316 µM
[34] = second compound 10 µM, first compound 1 µM
[35] = second compound 10 µM, first compound 3.16 µM
[36] = second compound 10 µM, first compound 10 µM
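Note: spheroids exposed to compounds for seven days before reading.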
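Throughout, for viability, T/C: percent viability relative to DMSO vehicle control taken as 100%.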

C=CCn1c(=O)c2cnc(Nc3ccc(N4CCN(C)CC4)cc3)nc2n1-c1cccc(C(C)(C)O)n1 + CN(C)c1ccc(Nc2c3ccc(NC(=O)CCN4CCCC4)cc3nc3cc(NC(=O)CCN4CCCC4)ccc23)cc1
pIC50 (second compound 0.0316 µM): 6.34 | pIC50 (second compound 0.1 µM): 6.17 | pIC50 (second compound 0.316 µM): 6.31 | pIC50 (second compound 1 µM): 6.26 | pIC50 (second compound 3.16 µM): 6.22 | pIC50 (second compound 10 µM): 5.77 | viability, T/C [1]: 109% | viability, T/C [2]: 123% | viability, T/C [3]: 56.4% | viability, T/C [4]: 37.7% | viability, T/C [5]: 40.3% | viability, T/C [6]: 31.5% | viability, T/C [7]: 106% | viability, T/C [8]: 96.1% | viability, T/C [9]: 61.5% | viability, T/C [10]: 47.3% | viability, T/C [11]: 34.2% | viability, T/C [12]: 37.5% | viability, T/C [13]: 128% | viability, T/C [14]: 95.1% | viability, T/C [15]: 57.1% | viability, T/C [16]: 38.4% | viability, T/C [17]: 34.9% | viability, T/C [18]: 39.5% | viability, T/C [19]: 95.3% | viability, T/C [20]: 77.2% | viability, T/C [21]: 62.3% | viability, T/C [22]: 35.4% | viability, T/C [23]: 39.6% | viability, T/C [24]: 34.2% | viability, T/C [25]: 99.7% | viability, T/C [26]: 87.2% | viability, T/C [27]: 56.7% | viability, T/C [28]: 42% | viability, T/C [29]: 48.2% | viability, T/C [30]: 42.6% | viability, T/C [31]: 95% | viability, T/C [32]: 80% | viability, T/C [33]: 62.3% | viability, T/C [34]: 45.5% | viability, T/C [35]: 56.3% | viability, T/C [36]: 45.1%

COc1ncnc(C2CC2)c1-c1ncc2cnn(Cc3ccc(-c4nc(C(F)(F)F)cn4C(C)C)cc3)c2n1 + CN(C)c1ccc(Nc2c3ccc(NC(=O)CCN4CCCC4)cc3nc3cc(NC(=O)CCN4CCCC4)ccc23)cc1
pIC50 (second compound 0.0316 µM): < 5.00 | pIC50 (second compound 0.1 µM): < 5.00 | pIC50 (second compound 0.316 µM): < 5.00 | pIC50 (second compound 1 µM): < 5.00 | pIC50 (second compound 3.16 µM): < 5.00 | pIC50 (second compound 10 µM): < 5.00 | viability, T/C [1]: 92.7% | viability, T/C [2]: 88.3% | viability, T/C [3]: 124% | viability, T/C [4]: 93% | viability, T/C [5]: 90% | viability, T/C [6]: 104% | viability, T/C [7]: 116% | viability, T/C [8]: 104% | viability, T/C [9]: 109% | viability, T/C [10]: 94.9% | viability, T/C [11]: 100% | viability, T/C [12]: 100% | viability, T/C [13]: 104% | viability, T/C [14]: 89.8% | viability, T/C [15]: 100% | viability, T/C [16]: 94.3% | viability, T/C [17]: 106% | viability, T/C [18]: 100% | viability, T/C [19]: 90.7% | viability, T/C [20]: 92.2% | viability, T/C [21]: 101% | viability, T/C [22]: 90.9% | viability, T/C [23]: 97.1% | viability, T/C [24]: 84.5% | viability, T/C [25]: 85.8% | viability, T/C [26]: 102% | viability, T/C [27]: 101% | viability, T/C [28]: 92.9% | viability, T/C [29]: 103% | viability, T/C [30]: 69.9% | viability, T/C [31]: 98.6% | viability, T/C [32]: 109% | viability, T/C [33]: 104% | viability, T/C [34]: 69.3% | viability, T/C [35]: 86.8% | viability, T/C [36]: 58%

CC1COCCN1c1cc(-c2ccnn2C)c2ccnc(-c3ccn[nH]3)c2n1 (stereo not given) + Cc1[nH]c2ccc(F)cc2c1-c1nc2c3cccnc3c3ncccc3c2[nH]1
pIC50 (second compound 0.0316 µM): < 5.00 | pIC50 (second compound 0.1 µM): < 5.00 | pIC50 (second compound 0.316 µM): < 5.00 | pIC50 (second compound 1 µM): 7.50 | pIC50 (second compound 3.16 µM): 7.50 | pIC50 (second compound 10 µM): 7.50 | viability, T/C [1]: 84.4% | viability, T/C [2]: 58.8% | viability, T/C [3]: 46.1% | viability, T/C [4]: 42% | viability, T/C [5]: 52.8% | viability, T/C [6]: 87.2% | viability, T/C [7]: 83.3% | viability, T/C [8]: 64.9% | viability, T/C [9]: 41.6% | viability, T/C [10]: 33.7% | viability, T/C [11]: 50% | viability, T/C [12]: 93.7% | viability, T/C [13]: 101% | viability, T/C [14]: 58.1% | viability, T/C [15]: 45.3% | viability, T/C [16]: 36.8% | viability, T/C [17]: 66% | viability, T/C [18]: 75% | viability, T/C [19]: 80.9% | viability, T/C [20]: 51.9% | viability, T/C [21]: 41.1% | viability, T/C [22]: 37.5% | viability, T/C [23]: 75.3% | viability, T/C [24]: 86.6% | viability, T/C [25]: 60.6% | viability, T/C [26]: 55.9% | viability, T/C [27]: 41.5% | viability, T/C [28]: 42.6% | viability, T/C [29]: 73.2% | viability, T/C [30]: 91.5% | viability, T/C [31]: 62.8% | viability, T/C [32]: 57.8% | viability, T/C [33]: 43.1% | viability, T/C [34]: 47.1% | viability, T/C [35]: 82.8% | viability, T/C [36]: 84.2%

CC1COCCN1c1cc(C2(S(C)(=N)=O)CC2)nc(-c2ccnc3[nH]ccc23)n1 (stereo not given) + Cc1[nH]c2ccc(F)cc2c1-c1nc2c3cccnc3c3ncccc3c2[nH]1
pIC50 (second compound 0.0316 µM): 5.52 | pIC50 (second compound 0.1 µM): 5.63 | pIC50 (second compound 0.316 µM): 5.26 | pIC50 (second compound 1 µM): 5.46 | pIC50 (second compound 3.16 µM): 5.64 | pIC50 (second compound 10 µM): < 5.00 | viability, T/C [1]: 99.6% | viability, T/C [2]: 84.9% | viability, T/C [3]: 90.2% | viability, T/C [4]: 62.4% | viability, T/C [5]: 52% | viability, T/C [6]: 41.5% | viability, T/C [7]: 78.9% | viability, T/C [8]: 83.8% | viability, T/C [9]: 92.3% | viability, T/C [10]: 62.2% | viability, T/C [11]: 48.9% | viability, T/C [12]: 42.5% | viability, T/C [13]: 106% | viability, T/C [14]: 84.9% | viability, T/C [15]: 88.2% | viability, T/C [16]: 72.6% | viability, T/C [17]: 56.2% | viability, T/C [18]: 41.7% | viability, T/C [19]: 70.3% | viability, T/C [20]: 90.4% | viability, T/C [21]: 78.8% | viability, T/C [22]: 66.7% | viability, T/C [23]: 51.4% | viability, T/C [24]: 45.2% | viability, T/C [25]: 69.4% | viability, T/C [26]: 79.4% | viability, T/C [27]: 67.5% | viability, T/C [28]: 57.3% | viability, T/C [29]: 48.4% | viability, T/C [30]: 40.2% | viability, T/C [31]: 81.6% | viability, T/C [32]: 63.7% | viability, T/C [33]: 65.6% | viability, T/C [34]: 50.4% | viability, T/C [35]: 50.7% | viability, T/C [36]: 54.3%

COc1ccc([C@@H](O)c2cc(-c3ncnc4cc(N5CCOCC5)ccc34)c(F)cc2Cl)nn1 + Cc1[nH]c2ccc(F)cc2c1-c1nc2c3cccnc3c3ncccc3c2[nH]1
pIC50 (second compound 0.0316 µM): 5.38 | pIC50 (second compound 0.1 µM): 5.24 | pIC50 (second compound 0.316 µM): 5.49 | pIC50 (second compound 1 µM): 5.35 | pIC50 (second compound 3.16 µM): 5.58 | pIC50 (second compound 10 µM): 5.67 | viability, T/C [1]: 81.2% | viability, T/C [2]: 79.2% | viability, T/C [3]: 72.2% | viability, T/C [4]: 68% | viability, T/C [5]: 54.7% | viability, T/C [6]: 35.8% | viability, T/C [7]: 90.6% | viability, T/C [8]: 78.8% | viability, T/C [9]: 68.6% | viability, T/C [10]: 60.2% | viability, T/C [11]: 62.5% | viability, T/C [12]: 42.1% | viability, T/C [13]: 95.4% | viability, T/C [14]: 82.4% | viability, T/C [15]: 74.9% | viability, T/C [16]: 60.6% | viability, T/C [17]: 51.3% | viability, T/C [18]: 38.8% | viability, T/C [19]: 75.6% | viability, T/C [20]: 81.8% | viability, T/C [21]: 66.9% | viability, T/C [22]: 62.8% | viability, T/C [23]: 57.5% | viability, T/C [24]: 38.5% | viability, T/C [25]: 80.7% | viability, T/C [26]: 73% | viability, T/C [27]: 65.4% | viability, T/C [28]: 64.8% | viability, T/C [29]: 45.3% | viability, T/C [30]: 34.6% | viability, T/C [31]: 64.2% | viability, T/C [32]: 69% | viability, T/C [33]: 78.5% | viability, T/C [34]: 57.1% | viability, T/C [35]: 46.2% | viability, T/C [36]: 33.9%

Source: PubChem BioAssay AID2060511 (Molecular Pharmacology Branch, DTP, NCI, 2025)
